Laboratory results published in patent US7015022B2, “Mammalian catalase-dependent oxidation processes and methods for stimulating oxidative activities” (University of Medicine & Dentistry of New Jersey, priority 2002, dated 2006).
“Also recorded” adds a separate entry of the source.

Legend:
mammalian catalase [1] = biological target: T1, mammalian catalase (Bos taurus, UniProt P00432); experiment: Competition with AMPLEX-RED: inhibition of the AMPLEX-RED catalase oxidase reaction; format: biochemical, bovine; settings: for kind of inhibition of the AMPLEX-RED oxidase reaction (kinetic analysis): competitive or noncompetitive; for inhibition of the oxidation of AMPLEX-RED to resorufin by catalase: concentrations ranging from 0.005 mM to 0.1 mm or greater; for inhibition of the AMPLEX-RED catalase oxidase activity: catalase 1 mg/ml in reaction buffer, no concentration given; for Ki: calculated from kinetic analysis, catalase 1 mg/ml, read-out: Ki for inhibition of the AMPLEX-RED catalase oxidation reaction
T1 construct: purified catalases obtained from a variety of sources including enzyme from mouse and bovine liver; purchased Sigma Chemical Co., St. Louis, Mo; host or cells: liver tissue (mouse and bovine named)
T1 sequence (P00432 2-527 limits assumed): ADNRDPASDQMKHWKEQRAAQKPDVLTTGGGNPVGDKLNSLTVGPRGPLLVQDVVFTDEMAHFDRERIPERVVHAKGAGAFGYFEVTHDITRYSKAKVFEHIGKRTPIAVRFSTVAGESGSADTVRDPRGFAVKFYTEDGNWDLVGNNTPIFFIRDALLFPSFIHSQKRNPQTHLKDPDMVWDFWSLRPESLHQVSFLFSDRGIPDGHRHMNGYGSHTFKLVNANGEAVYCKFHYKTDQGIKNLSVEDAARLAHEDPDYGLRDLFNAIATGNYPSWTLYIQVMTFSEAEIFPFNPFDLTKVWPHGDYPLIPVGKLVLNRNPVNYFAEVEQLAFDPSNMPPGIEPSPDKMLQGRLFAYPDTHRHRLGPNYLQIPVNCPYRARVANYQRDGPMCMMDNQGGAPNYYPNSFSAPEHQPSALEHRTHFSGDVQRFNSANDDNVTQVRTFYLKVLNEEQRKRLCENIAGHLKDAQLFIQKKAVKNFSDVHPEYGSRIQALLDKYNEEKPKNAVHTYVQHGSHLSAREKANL
Experimental: Catalases were purchased from Sigma Chemical Co., St. Louis, Mo. Reactions were carried out in buffer consisting of 50 mM phosphate buffer, pH 7.4 and 1.0 mg/ml of the catalase at room temperature (22° C.) in a reaction volume of 0.1 ml. […] Standard reaction mixtures contain 20 nmoles of the substrate. Detection of the fluorescent product resorufin was measured using an HTS 7000 Plus Bio Assay Reader (Perkin Elmer, Beaconsfield, Buckinghamsire, UK) using a 540 nm excitation filter and a 595 nm emission filter.

mammalian catalase [2] = biological target: T1, mammalian catalase; experiment: Oxidation of substrates by catalase oxidase activity (absorbance or fluorescence); format: biochemical, bovine; settings: in the absence of hydrogen peroxide
Experimental: The oxidation of multiple substrates depicted in Table 1 with time was measured using an HTS 7000 Plus Bio Assay Reader using standard catalase reaction mixes (0.5 mg/ml catalase in 50 mM phosphate buffer, pH 7.4). Pyrogallol oxidation (1 mM) was measured by the increase in absorbance at 430 nm. Oxidation of ABTS (1 mM) was measured as the […] in absorbance at 430 nm. Oxidation of catechol (1 mM) was measured as the increase in absorbance at 420 nm. Oxidation of DCFH (5 μM) by catalase was measured as the increase in fluorescence over time with a 485 nm excitation filter and a 520 nm emission filter.

catalase = biological target: T2, catalase (Bos taurus, UniProt P00432); experiment: Accelerating catalase oxidation of DCFH-DA with UV light; format: biochemical; settings: DCFH-DA 5 μM, catalase 1 mg/ml
T2 sequence (P00432 2-527 limits assumed): T1 sequence (P00432 2-527 limits assumed)
Experimental: The present invention also relates to methods for accelerating the oxidation of substrates by catalase by exposure to ultraviolet light. For purposes of the present invention, by “accelerate” or “accelerating” it is meant that the rate at which catalase oxidizes a substrate is increased when exposed to ultraviolet light as compared the rate of oxidation of the substrate by catalase in the absence of ultraviolet light. In this method, a substrate is added to mammalian catalase and the mixture is then treated with low doses of ultraviolet light to accelerate oxidation of the substrate. In a preferred embodiment of this method, the low dose of ultraviolet radiation ranges between 2.5 and 25 mJ/cm^2 at a wavelength of UVB light that is between 290 and 320 nm. […] For example, the substrate DCFH-DA was added to a reaction mixture containing catalase in sodium phosphate buffer. The samples were then exposed to increasing doses of ultraviolet light (UVB, 290–320 nm).
Samples were then exposed to increasing doses of ultraviolet light (UVB, 290–320 nm) emitted from a bank of two FS20 UVB light bulbs (Sylvania).

Row | Compound | kind of inhibition of the AMPLEX-RED oxidase reaction (kinetic analysis) (mammalian catalase [1]) | inhibition of the oxidation of AMPLEX-RED to resorufin by catalase (mammalian catalase [1]) | other results
1 | COc1cc(-c2ccc(N)c(OC)c2)ccc1N [DMB, 3,3′-dimethoxybenzidine] | competitive inhibitors | inhibition | 
2 | 5-amino-2,3-dihydro-1,4-phthalazine-dione (luminol) | competitive inhibitor |  | 
3 | Nc1nc[nH]n1 [3-amino-1,2,4-triazole] |  |  | inhibition of the AMPLEX-RED catalase oxidase activity (mammalian catalase [1]): inhibits
4 | Cc1c(N(C)C)c(=O)n(-c2ccccc2)n1C [4-dimethylaminoantipyrine] | non-competitive inhibitors | inhibition | kind of inhibition of the AMPLEX-RED oxidase reaction (kinetic analysis) (mammalian catalase [1]; listed as aminopyrene): noncompetitive inhibitor
5 | Nc1ccc(-c2ccc(N)c(N)c2)cc1N [DAB, 3,3′-diaminobenzidine] | competitive inhibitors | inhibition | inhibition of the AMPLEX-RED catalase oxidase activity (mammalian catalase [1]): inhibitors
6 | O=C(OC1Cc2c(O)cc(O)cc2OC1c1cc(O)c(O)c(O)c1)c1cc(O)c(O)c(O)c1 (single isomer, unassigned; (-)) [EGCG, (−)-epigallocatechin-3-gallate] |  |  | substrate for the catalase oxidase reaction (mammalian catalase [2]): substrate

The next lines start with results.

Row | kind of inhibition of the AMPLEX-RED oxidase reaction (kinetic analysis) (mammalian catalase [1]) | inhibition of the oxidation of AMPLEX-RED to resorufin by catalase (mammalian catalase [1]) | Compound | other results
7 | competitive inhibitors | inhibition | Oc1ccccc1O [DHB, 1,2-dihydroxybenzene(catechol)] | 
8 | competitive inhibitors | inhibition | CCn1/c(=N\N=c2\sc3cc(S(=O)(=O)O)ccc3n2CC)sc2cc(S(=O)(=O)O)ccc21.N.N [ABTS, 2,2′-azino-bis[3-ethylbenzthiazoline-6-sulfonic acid]] | 
9 | competitive inhibitors | inhibition | Oc1cccc(O)c1O [pyrogallol, 1,2,3-trihydroxybenzene(pyrogallol)] | Ki (mammalian catalase [1]): 1680 µM
10 | competitive inhibitors | inhibition | CC(=O)Oc1cc2c(cc1Cl)C(c1ccccc1C(=O)O)c1cc(Cl)c(OC(C)=O)cc1O2 [DCFH-DA, 2′,7′-dichlorodihydrofluoresceindiacetate] | Ki (mammalian catalase [1]): 31.6 µM; oxidation of DCFH-DA by catalase (increase in fluorescence) (catalase; absence of UVB light): Oxidation of DCFH-DA is observed; also recorded: Relatively low levels of oxidation; oxidation of DCFH-DA by catalase (increase in fluorescence) (catalase; with UVB light 290–320 nm, increasing doses): marked enhancement
11 | competitive inhibitors | inhibition | COc1cc(/C=C/C(=O)O)ccc1O [HMCA, 4-hydroxy-3-methoxycinnamicacid (ferulic acid)] | substrate for the catalase oxidase reaction (mammalian catalase [2]): substrate
